Results taken from US6737383B1, “Herbicidal oxadiazolidines” (priority 1999, dated 2004).

Experiments:
[1] = test system: bedstraw; test: Test B pre/postemergence bedstraw; assay type: in vivo, Galium aparine
In short: (§1)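 Response is a visual 0-to-10 score relative to untreated plants, where 0 means no effect and 10 means complete control, taken twelve to sixteen days after application. Treatments went onto soil at planting and onto foliage of 1- to 4-leaf plants, using a surfactant-containing non-phytotoxic solvent.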

[2] = test system: blackgrass; test: Test B pre/postemergence blackgrass; assay type: in vivo, Alopecurus myosuroides
In short: as §1

[3] = test system: surinam grass; test: Test B pre/postemergence surinam grass; assay type: in vivo, Brachiaria decumbens
In short: as §1

[4] = test system: cocklebur; test: Test B pre/postemergence cocklebur; assay type: in vivo, Xanthium strumarium
In short: as §1

[5] = test system: corn; test: Test B pre/postemergence corn; assay type: in vivo, Zea mays
In short: as §1

[6] = test system: crabgrass; test: Test B pre/postemergence crabgrass; assay type: in vivo, Digitaria sanguinalis
In short: as §1

[7] = test system: giant foxtail; test: Test B pre/postemergence giant foxtail; assay type: in vivo, Setaria faberii
In short: as §1

[8] = test system: morningglory; test: Test B pre/postemergence morningglory; assay type: in vivo, Ipomoea hederacea
In short: as §1

[9] = test system: pigweed; test: Test B pre/postemergence pigweed; assay type: in vivo, Amaranthus retroflexus
In short: as §1

[10] = test system: rape; test: Test B pre/postemergence rape; assay type: in vivo, Brassica napus
In short: as §1

[11] = test system: soybean; test: Test B pre/postemergence soybean; assay type: in vivo, Glycine max
In short: as §1

[12] = test system: sugar beet; test: Test B pre/postemergence sugar beet; assay type: in vivo, Beta vulgaris
In short: as §1

[13] = test system: velvetleaf; test: Test B pre/postemergence velvetleaf; assay type: in vivo, Abutilon theophrasti
In short: as §1

[14] = test system: wheat; test: Test B pre/postemergence wheat; assay type: in vivo, Triticum aestivum
In short: as §1

[15] = test system: wild oat; test: Test B pre/postemergence wild oat; assay type: in vivo, Avena fatua
In short: as §1

[16] = test system: purple nutsedge; test: Test B pre/postemergence purple nutsedge; assay type: in vivo, Cyperus rotundus; details: Postemergence
In short: as §1

[17] = test system: rice; test: Test B flood test rice; assay type: in vivo, Oryza sativa
In short: (§2)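 Flood test on plants grown to the 2-leaf stage; treated plants kept in greenhouse twelve to sixteen days, then visually rated against controls on a 0 (no effect) to 10 (complete control) scale.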

[18] = test system: smallflower flatsedge; test: Test B flood test smallflower flatsedge; assay type: in vivo, Cyperus difformis
In short: as §2

[19] = test system: duck salad; test: Test B flood test duck salad; assay type: in vivo, Heteranthera limosa
In short: as §2

[20] = test system: bamyardgrass; test: Test B flood test barnyardgrass; assay type: in vivo, Echinochloa crus-galli
In short: as §2

[21] = Preemergence, Rate 62 g/ha, scale of 0 to 10 where 0 is no effect and 10 is complete control
[22] = Preemergence, Rate 250 g/ha, scale of 0 to 10 where 0 is no effect and 10 is complete control
[23] = Preemergence, Rate 500 g/ha, scale of 0 to 10 where 0 is no effect and 10 is complete control
[24] = Rate 62 g/ha, Postemergence, scale of 0 to 10 where 0 is no effect and 10 is complete control
[25] = Rate 125 g/ha, Postemergence, scale 0 to 10
[26] = Rate 125 g/ha, Preemergence, scale of 0 to 10 where 0 is no effect and 10 is complete control
[27] = Rate 500 g/ha, Postemergence, scale 0 to 10, 0 no effect, 10 complete control
[28] = Rate 62 g/ha, headed Pre-emergence (flood test species), scale 0 to 10 (0 no effect, 10 complete control)
[29] = Rate 125 g/ha, Pre-emergence, flood test species, scale 0 to 10 where 0 is no effect and 10 is complete control
[30] = Rate 250 g/ha, Pre-emergence, flood-test species, scale 0 to 10, 0 is no effect, 10 is complete control
[31] = Rate 500 g/ha, Pre-emergence, flood test species, scale 0 to 10 (0 no effect, 10 complete control)

SMILES: CC(C)N(C(=O)n1oc(=O)n(CC2CC2)c1=O)c1ccc(F)cc1 [Compound 251]
- Bedstraw plant response rating [1, 21]: 0
- Bedstraw plant response rating [1, 22]: 10
- Plant response rating, Bedstraw [1, 23]: 10
- Bedstraw plant response rating [1, 24]: 2
- Bedstraw plant response rating [1, 25]: 6
- Bedstraw plant response rating [1, 26]: 0
- Plant response rating (0 to 10; 0 is no effect, 10 is complete control), Bedstraw ([1]; Rate 250 g/ha, Postemergence): 7
- Bedstraw plant response rating [1, 27]: 9
- Blackgrass plant response rating [2, 21]: 6
- Blackgrass plant response rating [2, 22]: 9
- Plant response rating, Blackgrass [2, 23]: 10
- Blackgrass plant response rating [2, 24]: 0
- Blackgrass plant response rating [2, 25]: 4
- Blackgrass plant response rating [2, 26]: 8
- Plant response rating (0 to 10; 0 is no effect, 10 is complete control), Blackgrass ([2]; Rate 250 g/ha, Postemergence): 8
- Blackgrass plant response rating [2, 27]: 8
- B. signalgrass plant response rating [3, 21]: 2
- B. signalgrass plant response rating [3, 22]: 7
- Plant response rating, B. signalgrass [3, 23]: 9
- B. signalgrass plant response rating [3, 24]: 0
- B. signalgrass plant response rating ([3]; Rate 125 g/ha, Postemergence, scale 0 (no effect) to 10 (complete control)): 0
- B. signalgrass plant response rating [3, 26]: 3
- Plant response rating (0 to 10; 0 is no effect, 10 is complete control), B. signalgrass ([3]; Rate 250 g/ha, Postemergence): 0
- B. signalgrass plant response rating [3, 27]: 2
- Cocklebur plant response rating [4, 21]: 0
- Cocklebur plant response rating [4, 22]: 0
- Plant response rating, Cocklebur [4, 23]: 0
- Cocklebur plant response rating [4, 24]: 0
- Cocklebur plant response rating [4, 25]: 0
- Cocklebur plant response rating [4, 26]: 0
- Plant response rating (0 to 10; 0 is no effect, 10 is complete control), Cocklebur ([4]; Rate 250 g/ha, Postemergence): 0
- Cocklebur plant response rating [4, 27]: 3
- Corn plant response rating [5, 21]: 0
- Corn plant response rating [5, 22]: 0
- Plant response rating, Corn [5, 23]: 5
- Corn plant response rating [5, 24]: 0
- Corn plant response rating [5, 25]: 0
- Corn plant response rating [5, 26]: 0
- Plant response rating (0 to 10; 0 is no effect, 10 is complete control), Corn ([5]; Rate 250 g/ha, Postemergence): 0
- Corn plant response rating [5, 27]: 0
- Crabgrass plant response rating [6, 21]: 3
- Crabgrass plant response rating [6, 22]: 9
- Plant response rating, Crabgrass [6, 23]: 10
- Crabgrass plant response rating [6, 26]: 7
- Plant response rating (0 to 10; 0 is no effect, 10 is complete control), Crabgrass ([6]; Rate 250 g/ha, Postemergence): 6
- Crabgrass plant response rating [6, 27]: 9
- Giant foxtail plant response rating [7, 21]: 8
- Giant foxtail plant response rating [7, 22]: 10
- Plant response rating, Giant foxtail [7, 23]: 10
- Giant foxtail plant response rating [7, 26]: 10
- Plant response rating (0 to 10; 0 is no effect, 10 is complete control), Giant foxtail ([7]; Rate 250 g/ha, Postemergence): 7
- Giant foxtail plant response rating [7, 27]: 8
- Morningglory plant response rating [8, 21]: 0
- Morningglory plant response rating [8, 22]: 0
- Plant response rating, Morningglory [8, 23]: 4
- Morningglory plant response rating [8, 26]: 0
- Plant response rating (0 to 10; 0 is no effect, 10 is complete control), Morningglory ([8]; Rate 250 g/ha, Postemergence): 7
- Morningglory plant response rating [8, 27]: 9
- Redroot pigweed plant response rating [9, 21]: 0
- Redroot pigweed plant response rating [9, 22]: 10
- Plant response rating, Redroot pigweed [9, 23]: 10
- Redroot pigweed plant response rating [9, 26]: 5
- Plant response rating (0 to 10; 0 is no effect, 10 is complete control), Redroot pigweed ([9]; Rate 250 g/ha, Postemergence): 2
- Redroot pigweed plant response rating [9, 27]: 4
- Rape plant response rating [10, 21]: 0
- Rape plant response rating [10, 22]: 9
- Plant response rating, Rape [10, 23]: 10
- Rape plant response rating [10, 26]: 9
- Plant response rating (0 to 10; 0 is no effect, 10 is complete control), Rape ([10]; Rate 250 g/ha, Postemergence): 0
- Rape plant response rating [10, 27]: 0
- Soybean plant response rating [11, 21]: 0
- Soybean plant response rating [11, 22]: 0
- Plant response rating, Soybean [11, 23]: 0
- Soybean plant response rating [11, 26]: 0
- Soybean plant response rating [11, 27]: 6
- Sugarbeets plant response rating [12, 21]: 6
- Sugarbeets plant response rating [12, 22]: 10
- Plant response rating, Sugarbeets [12, 23]: 10
- Sugarbeets plant response rating [12, 26]: 10
- Sugarbeets plant response rating [12, 27]: 2
- Velvetleaf plant response rating [13, 21]: 0
- Velvetleaf plant response rating [13, 22]: 5
- Plant response rating, Velvetleaf [13, 23]: 7
- Velvetleaf plant response rating [13, 26]: 4
- Velvetleaf plant response rating [13, 27]: 0
- Wheat plant response rating [14, 21]: 0
- Wheat plant response rating [14, 22]: 0
- Plant response rating, Wheat [14, 23]: 8
- Wheat plant response rating [14, 26]: 0
- Wheat plant response rating [14, 27]: 2
- Wild oats plant response rating [15, 21]: 0
- Wild oats plant response rating [15, 22]: 8
- Plant response rating, Wild oats [15, 23]: 9
- Wild oats plant response rating [15, 26]: 6
- Wild oats plant response rating [15, 27]: 0
- Plant response rating (0 to 10; 0 is no effect, 10 is complete control), Nutsedge ([16]; Rate 250 g/ha): 0
- Nutsedge plant response rating ([16]; Rate 500 g/ha, scale 0 to 10, 0 no effect, 10 complete control): 0
- Rice plant response rating [17, 28]: 0
- Rice plant response rating [17, 29]: 0
- Rice plant response rating [17, 30]: 0
- Rice plant response rating [17, 31]: 0
- S. Flatsedge plant response rating [18, 28]: 0
- S. Flatsedge plant response rating [18, 29]: 0
- S. Flatsedge plant response rating [18, 30]: 0
- S. Flatsedge plant response rating [18, 31]: 0
- Ducksalad plant response rating [19, 28]: 0
- Ducksalad plant response rating [19, 29]: 0
- Ducksalad plant response rating [19, 30]: 0
- Ducksalad plant response rating [19, 31]: 0
- Barnyardgrass plant response rating [20, 28]: 0
- Barnyardgrass plant response rating [20, 29]: 0
- Barnyardgrass plant response rating [20, 30]: 0
- Barnyardgrass plant response rating [20, 31]: 0
